Experimental data from patent US20260022142A1, “MACROCYCLIC IMMUNOMODULATORS” (Bristol-Myers Squibb Company, priority 2022, published 2026).
Bridge positions count the residues as written; N and C are the ends. Square brackets hold non-standard residues; d marks the D form. Peptide text beside a SMILES is read from it. * marks the point of attachment. Phe(4-COOH) = N[C@@H](Cc1ccc(C(=O)O)cc1)C(=O)O; Bip = N[C@@H](Cc1ccc(-c2ccccc2)cc1)C(=O)O; Phe(3-Me) = Cc1cccc(C[C@H](N)C(=O)O)c1; Cha = N[C@@H](CC1CCCCC1)C(=O)O; Carboxymethyl = O=C(O)C*; Orn = NCCC[C@H](N)C(=O)O; Aun = NCCCCCCCCCCC(=O)O; Dab = NCC[C@H](N)C(=O)O; Dap = NC[C@H](N)C(=O)O; AEEA = NCCOCCOCC(=O)O

Target: T1, PD-1/PD-L1 interaction (PE-labeled human PD-L1-Ig binding to Jurkat cell line over-expressing human PD-1) (Homo sapiens, UniProt Q15116)
T1 construct: expressed in transfected cells; host or cells: Jurkat
T1 sequence (Q15116 25-288): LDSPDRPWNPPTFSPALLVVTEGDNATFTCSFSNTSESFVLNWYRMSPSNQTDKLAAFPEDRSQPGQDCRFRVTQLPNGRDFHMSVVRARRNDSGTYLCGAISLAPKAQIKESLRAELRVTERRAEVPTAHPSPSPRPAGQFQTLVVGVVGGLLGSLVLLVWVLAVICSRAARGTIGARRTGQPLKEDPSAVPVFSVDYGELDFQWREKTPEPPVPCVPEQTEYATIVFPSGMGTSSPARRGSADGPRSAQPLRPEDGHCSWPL
Assay: Jurkat-PD-1 Cell Binding High-Content Screening Assay (CBA)
Assay type: cell-based
Conditions: Jurkat cell line over-expressing human PD-1; PE-labeled PD-L1-Ig 20 nM final; read-out: Jurkat hPD1-PDL1 IC50
Summary of the method: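 Jurkat-hPD-1 cells, DMEM/10% FCS; cpd 2 h 37° C; PE-PD-L1-Ig 20 nM final, 1 h; 4% PFA fix + Hoechst 33342, 3× dPBS wash; high-content imaging read-out.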

Compound `CC(C)C[C@H]1NC(=O)[C@H](CCCN)NC(=O)[C@H](C(C)C)NC(=O)[C@H](Cc2ccc(-c3ccccc3)cc2)NC(=O)[C@H](C(C)C)NC(=O)[C@H](Cc2c[nH]c3ccccc23)NC(=O)[C@H](CC(=O)O)NC(=O)[C@H](Cc2ccc(OCC(=O)O)cc2)NC(=O)[C@H](Cc2ccc(OCC(=O)O)cc2)NC(=O)CSC[C@@H](C(=O)N[C@@H](CCN)C(=O)NCCOCCOCC(=O)NCCCCCCCCCCC(=O)O)NC(=O)[C@H](CCCN)NC(=O)[C@H](C(C)C)NC(=O)[C@H](CC2CCCCC2)NC(=O)[C@H](CCN)NC1=O` [Compound 2553] ({CH2CO}-Y(Carboxymethyl)Y(Carboxymethyl)DWV[Bip]V[Orn][dL][Dab][Cha]V[Orn]C[Dab][AEEA][Aun]-OH; thioether N-14) has an IC50 of 11.3 nM.
With `CC(C)C[C@H]1NC(=O)[C@H](CCCN)NC(=O)[C@H](C(C)C)NC(=O)[C@H](Cc2ccc(-c3ccccc3)cc2)NC(=O)[C@H](C(C)C)NC(=O)[C@H](Cc2c[nH]c3ccccc23)NC(=O)[C@H](CC(=O)O)NC(=O)[C@H](Cc2ccc(OCC(=O)O)cc2)NC(=O)[C@H](Cc2ccc(OCC(=O)O)cc2)NC(=O)CSC[C@@H](C(=O)N[C@@H](CCN)C(=O)NCCOCCOCC(=O)NCCCCCCCCCCC(=O)O)NC(=O)[C@H](CN)NC(=O)[C@H](C(C)C)NC(=O)[C@H](CC2CCCCC2)NC(=O)[C@H](CCN)NC1=O` [Compound 2554] ({CH2CO}-Y(Carboxymethyl)Y(Carboxymethyl)DWV[Bip]V[Orn][dL][Dab][Cha]V[Dap]C[Dab][AEEA][Aun]-OH; thioether N-14) the IC50 was 11.5 nM.
`CC(C)C[C@H]1NC(=O)[C@H](CCCN)NC(=O)[C@H](C(C)C)NC(=O)[C@H](Cc2ccc(-c3ccccc3)cc2)NC(=O)[C@H](C(C)C)NC(=O)[C@H](Cc2c[nH]c3ccccc23)NC(=O)[C@H](CC(=O)O)NC(=O)[C@H](Cc2ccc(C(=O)O)cc2)NC(=O)[C@H](Cc2ccc(OCC(=O)O)cc2)NC(=O)CSC[C@@H](C(=O)N[C@@H](CCN)C(=O)NCCCCCCCCCCC(=O)O)NC(=O)[C@H](CCCCN)NC(=O)[C@H](C(C)C)NC(=O)[C@H](CC2CCCCC2)NC(=O)[C@H](CCN)NC1=O` [Compound 2555] ({CH2CO}-Y(Carboxymethyl)[Phe(4-COOH)]DWV[Bip]V[Orn][dL][Dab][Cha]VKC[Dab][Aun]-OH; thioether N-14) showed an IC50 of 24.1 nM.
Work on `CC(C)C[C@H]1NC(=O)[C@H](CCCN)NC(=O)[C@H](C(C)C)NC(=O)[C@H](Cc2ccc(-c3ccccc3)cc2)NC(=O)[C@H](C(C)C)NC(=O)[C@H](Cc2c[nH]c3ccccc23)NC(=O)[C@H](CC(=O)O)NC(=O)[C@H](Cc2ccc(OCC(=O)O)cc2)NC(=O)[C@H](Cc2ccc(OCC(=O)O)cc2)NC(=O)CSC[C@@H](C(=O)N[C@@H](CCN)C(=O)NCCCCCCCCCCC(=O)O)NC(=O)[C@H](CCCNC(=N)N)NC(=O)[C@H](C(C)C)NC(=O)[C@H](CC2CCCCC2)NC(=O)[C@H](CCN)NC1=O` [Compound 2556] ({CH2CO}-Y(Carboxymethyl)Y(Carboxymethyl)DWV[Bip]V[Orn][dL][Dab][Cha]VRC[Dab][Aun]-OH; thioether N-14) yielded an IC50 of 43.7 nM.
`CC(C)C[C@H]1NC(=O)[C@H](CCCN)NC(=O)[C@H](C(C)C)NC(=O)[C@H](Cc2ccc(-c3ccccc3)cc2)NC(=O)[C@H](C(C)C)NC(=O)[C@H](Cc2c[nH]c3ccccc23)NC(=O)[C@H](CC(=O)O)NC(=O)[C@H](Cc2ccc(OCC(=O)O)cc2)NC(=O)[C@H](CN)NC(=O)CSC[C@@H](C(=O)N[C@@H](CCN)C(=O)NCCCCCCCCCCC(=O)O)NC(=O)[C@H](CCCCN)NC(=O)[C@H](C(C)C)NC(=O)[C@H](CC2CCCCC2)NC(=O)[C@H](CCN)NC1=O` [Compound 2557] ({CH2CO}-[Dap]Y(Carboxymethyl)DWV[Bip]V[Orn][dL][Dab][Cha]VKC[Dab][Aun]-OH; thioether N-14) gave an IC50 of 12.1 nM.
`Cc1cccc(C[C@@H]2NC(=O)[C@H](CC(=O)O)NC(=O)[C@H](Cc3ccc(OCC(=O)O)cc3)NC(=O)[C@H](CN)NC(=O)CSC[C@@H](C(=O)N[C@@H](CCN)C(=O)NCCCCCCCCCCC(=O)O)NC(=O)[C@H](CN)NC(=O)[C@H](C(C)C)NC(=O)[C@H](CC3CCCCC3)NC(=O)[C@H](CCN)NC(=O)[C@@H](CC(C)C)NC(=O)[C@H](CCCN)NC(=O)[C@H](C(C)C)NC(=O)[C@H](Cc3ccc(-c4ccccc4)cc3)NC(=O)[C@H](C(C)C)NC2=O)c1` [Compound 2558] ({CH2CO}-[Dap]Y(Carboxymethyl)D[Phe(3-Me)]V[Bip]V[Orn][dL][Dab][Cha]V[Dap]C[Dab][Aun]-OH; thioether N-14) showed an IC50 of 10.7 nM.
`Cc1cccc(C[C@@H]2NC(=O)[C@H](CC(=O)O)NC(=O)[C@H](Cc3ccc(OCC(=O)O)cc3)NC(=O)[C@H](CN)NC(=O)CSC[C@@H](C(=O)N[C@@H](CCN)C(=O)NCCCCCCCCCCC(=O)O)NC(=O)[C@H](CCCN)NC(=O)[C@H](C(C)C)NC(=O)[C@H](CC3CCCCC3)NC(=O)[C@H](CCN)NC(=O)[C@@H](CC(C)C)NC(=O)[C@H](CCCN)NC(=O)[C@H](C(C)C)NC(=O)[C@H](Cc3ccc(-c4ccccc4)cc3)NC(=O)[C@H](C(C)C)NC2=O)c1` [Compound 2559] ({CH2CO}-[Dap]Y(Carboxymethyl)D[Phe(3-Me)]V[Bip]V[Orn][dL][Dab][Cha]V[Orn]C[Dab][Aun]-OH; thioether N-14) was tested, and the IC50 was 11.3 nM.
Compound `Cc1cccc(C[C@@H]2NC(=O)[C@H](CC(=O)O)NC(=O)[C@H](Cc3ccc(OCC(=O)O)cc3)NC(=O)[C@H](CN)NC(=O)CSC[C@@H](C(=O)N[C@@H](CCN)C(=O)NCCCCCCCCCCC(=O)O)NC(=O)[C@H](CCCNC(=N)N)NC(=O)[C@H](C(C)C)NC(=O)[C@H](CC3CCCCC3)NC(=O)[C@H](CCN)NC(=O)[C@@H](CC(C)C)NC(=O)[C@H](CCCN)NC(=O)[C@H](C(C)C)NC(=O)[C@H](Cc3ccc(-c4ccccc4)cc3)NC(=O)[C@H](C(C)C)NC2=O)c1` [Compound 2560] ({CH2CO}-[Dap]Y(Carboxymethyl)D[Phe(3-Me)]V[Bip]V[Orn][dL][Dab][Cha]VRC[Dab][Aun]-OH; thioether N-14) has an IC50 of 17 nM.
`CC(C)C[C@H]1NC(=O)[C@H](CCCN)NC(=O)[C@H](C(C)C)NC(=O)[C@H](Cc2ccc(-c3ccccc3)cc2)NC(=O)[C@H](C(C)C)NC(=O)[C@H](Cc2c[nH]c3ccccc23)NC(=O)[C@H](CC(=O)O)NC(=O)[C@H](Cc2ccc(OCC(=O)O)cc2)NC(=O)[C@H](Cc2ccc(OCC(=O)O)cc2)NC(=O)CSC[C@@H](C(=O)N[C@@H](CCN)C(=O)NCCCCCCCCCCC(=O)O)NC(=O)[C@H](CCCN)NC(=O)[C@H](C(C)C)NC(=O)[C@H](CC2CCCCC2)NC(=O)[C@H](CCN)NC1=O` [Compound 2561] ({CH2CO}-Y(Carboxymethyl)Y(Carboxymethyl)DWV[Bip]V[Orn][dL][Dab][Cha]V[Orn]C[Dab][Aun]-OH; thioether N-14) gave an IC50 of 14.6 nM.
`CC(C)C[C@H]1NC(=O)[C@H](CCCN)NC(=O)[C@H](C(C)C)NC(=O)[C@H](Cc2ccc(-c3ccccc3)cc2)NC(=O)[C@H](C(C)C)NC(=O)[C@H](Cc2c[nH]c3ccccc23)NC(=O)[C@H](CC(=O)O)NC(=O)[C@H](Cc2ccc(OCC(=O)O)cc2)NC(=O)[C@H](Cc2ccc(OCC(=O)O)cc2)NC(=O)CSC[C@@H](C(=O)N[C@@H](CCN)C(=O)NCCCCCCCCCCC(=O)O)NC(=O)[C@H](CN)NC(=O)[C@H](C(C)C)NC(=O)[C@H](CC2CCCCC2)NC(=O)[C@H](CCN)NC1=O` [Compound 2562] ({CH2CO}-Y(Carboxymethyl)Y(Carboxymethyl)DWV[Bip]V[Orn][dL][Dab][Cha]V[Dap]C[Dab][Aun]-OH; thioether N-14) was tested, and the IC50 was 39.2 nM.
`CC(C)C[C@H]1NC(=O)[C@H](CCCN)NC(=O)[C@H](C(C)C)NC(=O)[C@H](Cc2ccc(-c3ccccc3)cc2)NC(=O)[C@H](C(C)C)NC(=O)[C@H](Cc2c[nH]c3ccccc23)NC(=O)[C@H](CC(=O)O)NC(=O)[C@H](Cc2ccc(C(=O)O)cc2)NC(=O)[C@H](Cc2ccc(OCC(=O)O)cc2)NC(=O)CSC[C@@H](C(=O)NCCOCCOCC(=O)NCCCCCCCCCCC(=O)O)NC(=O)[C@H](CCCCN)NC(=O)[C@H](C(C)C)NC(=O)[C@H](CC2CCCCC2)NC(=O)[C@H](CCN)NC1=O` [Compound 2563] ({CH2CO}-Y(Carboxymethyl)[Phe(4-COOH)]DWV[Bip]V[Orn][dL][Dab][Cha]VKC[AEEA][Aun]-OH; thioether N-14) showed an IC50 of 29.3 nM.
`CC(C)C[C@H]1NC(=O)[C@H](CCCN)NC(=O)[C@H](C(C)C)NC(=O)[C@H](Cc2ccc(-c3ccccc3)cc2)NC(=O)[C@H](C(C)C)NC(=O)[C@H](Cc2c[nH]c3ccccc23)NC(=O)[C@H](CC(=O)O)NC(=O)[C@H](Cc2ccc(OCC(=O)O)cc2)NC(=O)[C@H](Cc2ccc(OCC(=O)O)cc2)NC(=O)CSC[C@@H](C(=O)NCCOCCOCC(=O)NCCCCCCCCCCC(=O)O)NC(=O)[C@H](CCCNC(=N)N)NC(=O)[C@H](C(C)C)NC(=O)[C@H](CC2CCCCC2)NC(=O)[C@H](CCN)NC1=O` [Compound 2564] ({CH2CO}-Y(Carboxymethyl)Y(Carboxymethyl)DWV[Bip]V[Orn][dL][Dab][Cha]VRC[AEEA][Aun]-OH; thioether N-14) was tested, and the IC50 was 10 nM.
With `CC(C)C[C@H]1NC(=O)[C@H](CCCN)NC(=O)[C@H](C(C)C)NC(=O)[C@H](Cc2ccc(-c3ccccc3)cc2)NC(=O)[C@H](C(C)C)NC(=O)[C@H](Cc2c[nH]c3ccccc23)NC(=O)[C@H](CC(=O)O)NC(=O)[C@H](Cc2ccc(OCC(=O)O)cc2)NC(=O)[C@H](CN)NC(=O)CSC[C@@H](C(=O)NCCOCCOCC(=O)NCCCCCCCCCCC(=O)O)NC(=O)[C@H](CCCCN)NC(=O)[C@H](C(C)C)NC(=O)[C@H](CC2CCCCC2)NC(=O)[C@H](CCN)NC1=O` [Compound 2565] ({CH2CO}-[Dap]Y(Carboxymethyl)DWV[Bip]V[Orn][dL][Dab][Cha]VKC[AEEA][Aun]-OH; thioether N-14) the IC50 was 5.4 nM.
